Test results from US9598433B2, “Hepatitis C virus inhibitors” (BRISTOL-MYERS SQUIBB COMPANY, priority 2012, dated 2017).
Like-named read-outs stand apart in the source and are kept apart here.

Legend:
[1] = test system: HCV genotype 1b (Con1) replicon in HUH-7 cells; test: HCV replicon luciferase reporter assay, genotype 1b; format: cell-based; conditions: Hepatitis C virus, 72 h, genotype 1b replicon, 3 days incubation
Procedure, shortened: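 The HUH-7 cells stably carried a genotype 1b Con1 replicon with a Renilla luciferase reporter and the S1179I adaptive mutation. Luminescence was read after 2 h with 7.5 μM EnduRen, and EC50s came from four-parameter logistic fits.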

[2] = test system: HCV genotype 1a (H77 strain) replicon in HUH-7 cells; test: HCV replicon luciferase reporter assay, genotype 1a; format: cell-based; conditions: Hepatitis C virus, 72 h, genotype 1a replicon, 3 days incubation
Procedure, shortened: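 Stable HUH-7 line carrying luciferase-reporter genotype 1a (H77) replicon with adaptive NS3 P1496L and NS5A S2204I mutations; 3.0×10^3 cells/well in 4% FCS, 0.5% DMSO, twenty-point 3-fold titration, 3 days at 37 °C. Renilla luminescence with 7.5 μM EnduRen; EC50 by four-parameter logistic fit; CC50 by multiplexed Cell Titer-Blue.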

Row | SMILES | EC50 ([1]; read-out: LE_1b (EC50, range)) [nM] | EC50 ([2]; read-out: LE_1a (EC50, range)) [nM] | EC50 ([1]; read-out: LE_1b (EC50)) [nM] | EC50 ([2]; read-out: LE_1a (EC50)) [nM]
1 | COc1cnc(O[C@@H]2C[C@H]3C(=O)N[C@]4(C(=O)NS(=O)(=O)C5(C)CC5)C[C@H]4/C=C\CO[C@@H](C)C[C@@H](C)[C@H](NC(=O)OC(C)(C)C)C(=O)N3C2)c2ccccc12 [Compound 2601, tert-butyl ((2R,6S,7R,9S,13aS,14aR,16aS,Z)-2-((4-methoxyisoquinolin-1-yl)oxy)-7,9-dimethyl-14a-(((1-methylcyclopropyl)sulfonyl)carbamoyl)-5,16-dioxo-2,3,5,6,7,8,9,11,13a,14,14a,15,16,16a-tetradecahydro-1H-cyclopropa[e]pyrrolo[2,1-i][1,7,10]oxadiazacyclopentadecin-6-yl)carbamate] | 1.01 to 5 | 1.01 to 5 | – | –
2 | COc1ccc2c(O[C@@H]3C[C@H]4C(=O)N[C@]5(C(=O)NS(=O)(=O)C6CC6)C[C@H]5/C=C\CO[C@@H](C)C[C@@H](C)[C@H](NC(=O)OC(C)(C)C)C(=O)N4C3)nccc2c1 [Compound 2603, tert-butyl ((2R,6S,7R,9S,13a5,14aR,16aS,Z)-14a-((cyclopropylsulfonyl)carbamoyl)-2-((6-methoxyisoquinolin-1-yl)oxy)-7,9-dimethyl-5,16-dioxo-2,3,5,6,7,8,9,11,13a,14,14a,15,16,16a-tetradecahydro-1H-cyclopropa[e]pyrrolo[2,1-i][1,7,10]oxadiazacyclopentadecin-6-yl)carbamate] | 5.01 to 35 | 5.01 to 35 | 6.64 | 9.08
3 | COc1ccc2c(O[C@@H]3C[C@H]4C(=O)N[C@]5(C(=O)NS(=O)(=O)C6CC6)C[C@H]5/C=C\CO[C@@H](C)C[C@@H](C)[C@H](NC(=O)OC(C)(C)C(F)(F)F)C(=O)N4C3)nccc2c1 [Compound 2604, 1,1,1-trifluoro-2-methylpropan-2-yl ((2R,6S,7R,9S,13aS,14aR,16aS,Z)-14a-((cyclopropylsulfonyl)carbamoyl)-2-((6-methoxyisoquinolin-1-yl)oxy)-7,9-dimethyl-5,16-dioxo-2,3,5,6,7,8,9,11,13a,14,14a,15,16,16a-tetradecahydro-1H-cyclopropa[e]pyrrolo[2,1-i][1,7,10]oxadiazacyclopentadecin-6-yl)carbamate] | 1.01 to 5 | 5.01 to 35 | – | –
4 | CC[C@@H]1O[C@H](C)CC/C=C\[C@@H]2C[C@@]2(C(=O)NS(=O)(=O)C2(C)CC2)NC(=O)[C@@H]2C[C@@H](Oc3ncc(OC)c4ccc(F)cc34)CN2C(=O)[C@H]1NC(=O)OC(C)(C)C(C)(F)F [Compound 2605, 3,3-difluoro-2-methylbutan-2-yl ((2R,6S,7S,9R,13aS,14aR,16aS,Z)-7-ethyl-2-((7-fluoro-4-methoxyisoquinolin-1-yl)oxy)-9-methyl-14a-(((1-methylcyclopropyl)sulfonyl)carbamoyl)-5,16-dioxo-2,3,5,6,7,9,10,11,13a,14,14a,15,16,16a-tetradecahydro-1H-cyclopropa[i]pyrrolo[1,2-e][1,5,8]oxadiazacyclopentadecin-6-yl)carbamate] | 0.1 to 0.5 | 0.51 to 1 | – | –
5 | CC[C@@H]1O[C@H](C)CC/C=C\[C@@H]2C[C@@]2(C(=O)NS(=O)(=O)C2(C)CC2)NC(=O)[C@@H]2C[C@@H](Oc3ncc(OC)c4ccc(F)cc34)CN2C(=O)[C@H]1NC(=O)OC(C)(C)C(F)(F)F [Compound 2606] | 0.1 to 0.5 | 0.51 to 1 | – | –
6 | CCOc1cc2ccnc(O[C@@H]3C[C@H]4C(=O)N[C@]5(C(=O)NS(=O)(=O)C6(C)CC6)C[C@H]5/C=C\CC[C@@H](C)O[C@@H](CC)[C@H](NC(=O)OC(C)(C)C(C)(F)F)C(=O)N4C3)c2cc1F [Compound 2607, 3,3-difluoro-2-methylbutan-2-yl ((2R,6S,7S,9R,13 aS,14aR,16aS,Z)-2-((6-ethoxy-7-fluoroisoquinolin-1-yl)oxy)-7-ethyl-9-methyl-14a-(((1-methylcyclopropyl)sulfonyl)carbamoyl)-5,16-dioxo-2,3,5,6,7,9,10,11,13a,14,14a,15,16,16a-tetradecahydro-1H-cyclopropa[i]pyrrolo[1,2-e][1,5,8]oxadiazacyclopentadecin-6-yl)carbamate] | 0.1 to 0.5 | 0.51 to 1 | – | –
7 | CCOc1cc2ccnc(O[C@@H]3C[C@H]4C(=O)N[C@]5(C(=O)NS(=O)(=O)C6(C)CC6)C[C@H]5/C=C\CC[C@@H](C)O[C@@H](CC)[C@H](NC(=O)OC(C)(C)C(F)(F)F)C(=O)N4C3)c2cc1F [Compound 2608, 1,1,1-trifluoro-2-methylpropan-2-yl ((2R,6S,7S,9R,13aS,14aR,16aS,Z)-2-((6-ethoxy-7-fluoroisoquinolin-1-yl)oxy)-7-ethyl-9-methyl-14a-(((1-methylcyclopropyl)sulfonyl)carbamoyl)-5,16-dioxo-2,3,5,6,7,9,10,11,13a,14,14a,15,16,16a-tetradecahydro-1H-cyclopropa[i]pyrrolo[1,2-e][1,5,8]oxadiazacyclopentadecin-6-yl)carbamate] | 0.1 to 0.5 | 0.51 to 1 | – | –
8 | CC[C@@H]1O[C@H](C)CC/C=C\[C@@H]2C[C@@]2(C(=O)NS(=O)(=O)C2(C)CC2)NC(=O)[C@@H]2C[C@@H](Oc3nccc4c5c(ccc34)OCCO5)CN2C(=O)[C@H]1NC(=O)OC(C)(C)C(C)(F)F [Compound 2609, 3,3-difluoro-2-methylbutan-2-yl ((2R,6S,7S,9R,13aS,14aR,16aS,Z)-2-((2,3-dihydro-[1,4]dioxino[2,3-f]isoquinolin-7-yl)oxy)-7-ethyl-9-methyl-14a-(((1-methylcyclopropyl)sulfonyl)carbamoyl)-5,16-dioxo-2,3,5,6,7,9,10,11,13a,14,14a,15,16,16a-tetradecahydro-1H-cyclopropa[i]pyrrolo[1,2-e][1,5,8]oxadiazacyclopentadecin-6-yl)carbamate] | 0.51 to 1 | 1.01 to 5 | – | –
9 | CC[C@@H]1O[C@H](C)CC/C=C\[C@@H]2C[C@@]2(C(=O)NS(=O)(=O)C2(C)CC2)NC(=O)[C@@H]2C[C@@H](Oc3nccc4c5c(ccc34)OCCO5)CN2C(=O)[C@H]1NC(=O)OC(C)(C)C(F)(F)F [Compound 2610, 1,1,1-trifluoro-2-methylpropan-2-yl ((2R,6S,7S,9R,13aS,14aR,16aS,Z)-2-((2,3-dihydro-[1,4]dioxino[2,3-f]isoquinolin-7-yl)oxy)-7-ethyl-9-methyl-14a-(((1-methylcyclopropyl)sulfonyl)carbamoyl)-5,16-dioxo-2,3,5,6,7,9,10,11,13a,14,14a,15,16,16a-tetradecahydro-1H-cyclopropa[i]pyrrolo[1,2-e][1,5,8]oxadiazacyclopentadecin-6-yl)carbamate] | 0.51 to 1 | 1.01 to 5 | – | –
10 | CC[C@@H]1O[C@H](C)CC/C=C\[C@@H]2C[C@@]2(C(=O)NS(=O)(=O)C2(C)CC2)NC(=O)[C@@H]2C[C@@H](Oc3nccc4c5c(ccc34)OCCO5)CN2C(=O)[C@H]1NC(=O)OC(C)(C)C [Compound 2611, tert-butyl ((2R,6S,7S,9R,13aS,14aR,16aS,Z)-2-((2,3-dihydro-[1,4]dioxino[2,3-f]isoquinolin-7-yl)oxy)-7-ethyl-9-methyl-14a-(((1-methylcyclopropyl)sulfonyl)carbamoyl)-5,16-dioxo-2,3,5,6,7,9,10,11,13a,14,14a,15,16,16a-tetradecahydro-1H-cyclopropa[i]pyrrolo[1,2-e][1,5,8]oxadiazacyclopentadecin-6-yl)carbamate] | 0.51 to 1 | 1.01 to 5 | – | –
